# Data as given in patent publication US12428412B2 (DANA-FARBER CANCER INSTITUTE, INC., priority 2018, dated 2025).
# “Also recorded” adds a separate entry of the source.
# What was measured:
# EP300 [1] = target: T1, EP300 (Mus musculus, UniProt B2RWS6); test: Immunohistochemistry (IHC) staining of liver from MTD study, EP300; format: in vivo; settings: normal mice, 40 mpk, 14-day treatment
# T1 construct: from tissue; host or cells: mouse liver (CD1 mice)
# Description: (§1) Immunohistochemistry (IHC) staining was used to examine a liver from MTD study. […] No changes in CBP and H3K27Ac levels were observed.
# Kelly cells [2] = test: Colony formation assay, Kelly cells; format: cell-based; settings: 10 days
# Description: The experimental method for the colony formation assay is as described in Durbin et al., Nat Genet. 50(9):1240-60 (2018).
# EP300 [3] = target: T2, EP300 (Homo sapiens, UniProt Q09472); test: Proteomics analysis in Kelly NB cells, EP300; format: cell-based; settings: 500 nM, 6 hours and 36 hours
# T2 construct: Whole cell lysates were collected using ice cold lysis buffer; endogenous in cells; host or cells: Kelly neuroblastoma cells (incl. Ch2.2, LACZ and CRBN knockout lines)
# Method: FIG. 9C is a plot of the proteomics analysis results after treating Kelly NB cells with CPD 1 (500 nM) at 6 hours and 36 hours.
# EP300 [4] = target: T2, EP300; test: Immunoblot in CRBN knockout Kelly cell lines, EP300; format: cell-based; settings: CRBN-1 and CRBN-3 Kelly lines, 500 nM
# Method: (§2) CPD 1 was tested in CRBN knockout (k/o) Kelly cell lines. The experimental protocol is the same as in Example 24.
# Kelly cells [5] = test: ATPlite cell growth inhibition assay, Kelly cell lines treated 72 hours; format: cell-based
# Method: Compounds CPD 1 to CPD 22 were tested via ATPlite™ assay (ATPlite™ 1000 assay kit, PerkinElmer®, USA) using standard protocol. […] The signal is normalized to DMSO treated cells.
# cereblon (CRBN) = cereblon (CRBN) (Homo sapiens, UniProt Q96SW2); test: AlphaScreen assay, cereblon (CRBN); format: binding
# Description: An AlphaLISA® assay for EP300 catalytic function (FIG. 3B) and an AlphaScreen™ assay for EP300 bromodomain and cereblon (CRBN) using biotinylated tagged small molecules as a probe for EP300 bromodomain and CRBN, respectively, were developed (FIG. 3C).
# AlphaScreen™ assay was used to determine the binding of inventive degrader compound toward both CRBN and HAT domain.
# EP300 [6] = target: T2, EP300; test: Cellular degradation assay (immunoblot) in Kelly NB cells, EP300; format: cell-based; settings: dose or time dependent
# Method: Kelly Neuroblastoma cells were seeded at 1,000,000 cells per well in 6 well plates and were treated in a dose-dependent manner for 24 to 72 hours. Whole cell lysates were collected using ice cold lysis buffer [300 mM NaCl, 50 mM Tris-HCl, pH 7.5, 0.5% Triton X-100, 1% SDS, 1 mM dithiothreitol (DTT), Roche® protease inhibitor cocktail (1:000), 25 units/mL Benzonase] and blotted at a protein concentration of 20 μg. Histone extraction was performed using the EpiQuik™ Total Histone Extraction Kit (OP-0006-100, Epigentek) and blotted at a protein concentration of 4 μg.
# Whole cell lysates were resolved in NuPAGE® 3-8% Tris-Acetate polyacrylamide gels (EA03785BOX, Invitrogen™) and histone extraction lysates in Bolt 4-12% Bis-Tris polyacrylamide gels (NWO4125BOX, Invitrogen™). Afterwards, gels were transferred to nitrocellulose membranes (LC2001, Invitrogen™). […]
# The experimental protocol is the same as in Example 24. The protein level was determined by immunoblot using EP300 antibody, CBP antibody or H3K27ac antibody. […]
# CBP [7] = target: T3, CBP (Homo sapiens, UniProt Q92793); test: Immunoblot in CRBN knockout Kelly cell lines, CBP; format: cell-based; settings: CRBN-1 and CRBN-3 Kelly lines, 500 nM
# T3 construct: endogenous in cells; host or cells: Kelly neuroblastoma cells (incl. Ch2.2, LACZ and CRBN knockout lines)
# Method: as §2
# U266 cells = test: 6-day MTT assay, U266 cells; format: cell-based; settings: 0-10 μM
# Method: Media from cell cultures was discarded. For adherent cells, the media was carefully aspirated. For suspension cells, the 96 well plate at 1,000×g, 4° C., was spun for 5 minutes in a microplate-compatible centrifuge and the media was carefully aspirated. The volume of existing media has to be the same for each sample. Fifty (50) μL of serum-free media and 50 μL of MTT solution were added into each well. The plate was incubated at 37° C. for 3 hours.
# After incubation, 150 μL of MTT solvent were added into each well. The plate was wrapped in foil and shaken on an orbital shaker for 15 minutes. Absorbance was read at OD=590 nm. Reading was performed within 1 hour.
# CBP [8] = target: T4, CBP (Mus musculus, UniProt P45481); test: Immunohistochemistry (IHC) staining of liver from MTD study, CBP; format: in vivo; settings: normal mice, 40 mpk, 14-day treatment
# T4 construct: from tissue; host or cells: mouse liver (CD1 mice)
# Description: as §1
# T2 sequence (Q09472 whole entry): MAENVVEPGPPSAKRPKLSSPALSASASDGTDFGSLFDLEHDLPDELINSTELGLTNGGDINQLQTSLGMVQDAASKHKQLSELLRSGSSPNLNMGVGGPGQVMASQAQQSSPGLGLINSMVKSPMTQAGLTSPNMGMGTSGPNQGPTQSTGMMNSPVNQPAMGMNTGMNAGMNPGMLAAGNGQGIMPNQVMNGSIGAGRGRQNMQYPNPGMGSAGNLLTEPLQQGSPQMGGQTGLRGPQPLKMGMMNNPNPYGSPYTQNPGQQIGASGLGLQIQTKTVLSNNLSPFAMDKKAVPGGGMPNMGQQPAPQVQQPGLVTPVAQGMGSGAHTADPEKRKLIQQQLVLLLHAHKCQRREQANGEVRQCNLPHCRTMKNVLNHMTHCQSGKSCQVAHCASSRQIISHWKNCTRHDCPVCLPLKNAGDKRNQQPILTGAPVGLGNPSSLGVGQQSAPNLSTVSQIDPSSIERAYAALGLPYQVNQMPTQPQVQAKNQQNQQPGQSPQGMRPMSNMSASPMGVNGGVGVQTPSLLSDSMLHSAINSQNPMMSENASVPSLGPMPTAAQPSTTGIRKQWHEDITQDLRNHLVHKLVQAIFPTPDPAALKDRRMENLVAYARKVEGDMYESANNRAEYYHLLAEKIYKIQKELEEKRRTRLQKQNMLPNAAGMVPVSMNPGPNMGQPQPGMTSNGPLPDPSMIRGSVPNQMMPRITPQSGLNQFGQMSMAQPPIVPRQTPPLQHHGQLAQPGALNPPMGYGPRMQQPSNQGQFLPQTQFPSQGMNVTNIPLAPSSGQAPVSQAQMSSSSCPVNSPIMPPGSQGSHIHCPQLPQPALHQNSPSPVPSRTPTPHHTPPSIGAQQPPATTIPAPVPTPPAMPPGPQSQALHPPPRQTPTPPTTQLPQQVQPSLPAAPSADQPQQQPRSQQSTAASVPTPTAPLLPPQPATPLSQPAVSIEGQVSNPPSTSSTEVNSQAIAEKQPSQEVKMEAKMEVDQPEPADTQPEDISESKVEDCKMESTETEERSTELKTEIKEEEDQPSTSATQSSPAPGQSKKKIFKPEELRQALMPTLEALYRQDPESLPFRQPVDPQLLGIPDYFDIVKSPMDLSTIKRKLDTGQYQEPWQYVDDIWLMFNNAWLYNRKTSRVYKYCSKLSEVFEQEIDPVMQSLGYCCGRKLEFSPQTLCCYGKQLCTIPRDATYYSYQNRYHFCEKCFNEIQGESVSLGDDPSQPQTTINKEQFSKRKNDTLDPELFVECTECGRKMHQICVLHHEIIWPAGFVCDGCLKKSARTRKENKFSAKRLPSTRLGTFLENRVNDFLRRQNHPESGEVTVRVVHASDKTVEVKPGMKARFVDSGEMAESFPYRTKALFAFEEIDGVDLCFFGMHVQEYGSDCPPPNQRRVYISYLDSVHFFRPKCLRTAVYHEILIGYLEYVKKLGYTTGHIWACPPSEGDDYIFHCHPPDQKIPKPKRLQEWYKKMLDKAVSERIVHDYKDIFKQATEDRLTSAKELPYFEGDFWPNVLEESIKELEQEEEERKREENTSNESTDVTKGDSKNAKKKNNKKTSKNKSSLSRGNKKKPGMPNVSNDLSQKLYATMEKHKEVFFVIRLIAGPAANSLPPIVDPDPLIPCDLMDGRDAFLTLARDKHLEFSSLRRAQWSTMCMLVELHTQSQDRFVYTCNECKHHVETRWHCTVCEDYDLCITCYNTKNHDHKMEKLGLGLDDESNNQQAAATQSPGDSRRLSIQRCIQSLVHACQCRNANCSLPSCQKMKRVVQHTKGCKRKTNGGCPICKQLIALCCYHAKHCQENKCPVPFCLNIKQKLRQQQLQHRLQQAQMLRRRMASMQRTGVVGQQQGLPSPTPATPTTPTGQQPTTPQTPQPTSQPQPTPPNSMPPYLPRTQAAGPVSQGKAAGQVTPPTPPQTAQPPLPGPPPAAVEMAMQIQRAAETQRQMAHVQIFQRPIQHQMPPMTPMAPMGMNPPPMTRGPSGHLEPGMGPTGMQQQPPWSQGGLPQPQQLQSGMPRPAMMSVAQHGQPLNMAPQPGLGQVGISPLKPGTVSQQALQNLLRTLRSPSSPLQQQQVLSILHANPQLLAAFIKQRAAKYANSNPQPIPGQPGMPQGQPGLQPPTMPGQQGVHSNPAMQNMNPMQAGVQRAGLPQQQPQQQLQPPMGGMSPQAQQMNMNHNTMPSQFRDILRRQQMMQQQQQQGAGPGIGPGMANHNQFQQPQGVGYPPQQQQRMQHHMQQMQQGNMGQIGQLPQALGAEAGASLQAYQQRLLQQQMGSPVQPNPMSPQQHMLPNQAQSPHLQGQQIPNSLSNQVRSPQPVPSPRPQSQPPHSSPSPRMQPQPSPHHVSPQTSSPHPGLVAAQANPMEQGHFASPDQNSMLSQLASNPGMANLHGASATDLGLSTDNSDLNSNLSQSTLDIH
# Sequence of cereblon (CRBN) (Q96SW2 whole entry): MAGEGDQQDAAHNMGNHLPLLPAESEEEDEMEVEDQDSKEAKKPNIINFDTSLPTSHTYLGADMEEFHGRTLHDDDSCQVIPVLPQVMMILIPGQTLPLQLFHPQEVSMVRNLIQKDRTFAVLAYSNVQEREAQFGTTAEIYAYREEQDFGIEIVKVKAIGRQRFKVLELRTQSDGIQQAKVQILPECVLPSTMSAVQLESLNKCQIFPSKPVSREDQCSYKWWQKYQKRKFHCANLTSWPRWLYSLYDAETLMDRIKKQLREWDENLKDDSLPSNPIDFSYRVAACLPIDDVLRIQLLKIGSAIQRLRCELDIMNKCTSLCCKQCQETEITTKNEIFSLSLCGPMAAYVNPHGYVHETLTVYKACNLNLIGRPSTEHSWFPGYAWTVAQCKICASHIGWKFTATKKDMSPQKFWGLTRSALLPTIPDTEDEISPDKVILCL
compound,measurement,setting,value
"C[C@H](N(Cc1ccc(F)cc1)C(=O)CN1C(=O)O[C@@]2(CCc3cc(NC(=O)CCCCCCCCCCCNc4ccc5c(c4)C(=O)N(C4CCC(=O)NC4=O)C5=O)ccc32)C1=O)C(F)(F)F (stereo partly drawn) [CPD 1, 12-((2-(2,6-dioxopiperidin-3-yl)-1,3-dioxoisoindolin-5-yl)amino)-N—((R)-3′-(2-((4-fluorobenzyl)((S)-1,1,1-trifluoropropan-2-yl)amino)-2-oxoethyl)-2′,4′-dioxo-2,3-dihydrospiro[indene-1,5′-oxazolidin]-5-yl)dodecanamide]",EP300 (P300) level in liver tissue,EP300 [1],A drop in P300 levels was observed
same,"Kelly cell growth, colony formation",Kelly cells [2],inhibited the Kelly cell growth in a dose dependent manner
same,EP300 degradation (proteomics),EP300 [3],selectively and significantly degraded
same,EP300 degradation in CRBN k/o lines,EP300 [4],did not degrade
same,Kelly NB cell growth inhibition,"Kelly cells [5]; 72 hours, ATPlite, normalized to DMSO",outperformed positive control A485; also recorded: Cell growth inhibition was observed; also recorded: much higher potency compared to inhibitor alone
same,IC50,Kelly cells [5]; ND: not detected,0.166 µM
same,binding to cereblon (CRBN),cereblon (CRBN),bound and bind
same,EP300 degradation,EP300 [6],selective degradation of EP300; also recorded: clear degradation of EP300
same,CBP degradation in CRBN k/o lines,CBP [7],did not degrade
same,growth inhibition compared with A485,U266 cells,outperformed inhibitor A485
same,CBP level in liver tissue,CBP [8],No changes
